From publication PMC8320897, “Inhibition of PI3K and MAPK pathways along with KIT inhibitors as a strategy to overcome drug resistance in gastrointestinal stromal tumors” (PLoS ONE, 2021)
Like-named read-outs stand apart in the source and are kept apart here.

Assays:
GIST-T1 [1] = assay: Cell proliferation assay (Cell Counting Kit-8), drug screen; format: cell-based, human; conditions: read-out: IC50 GIST-T1
GIST-T1/670 [2] = assay: Cell proliferation assay (Cell Counting Kit-8); format: cell-based, human; conditions: read-out: IC50 T1/670
GIST882 = assay: Cell proliferation assay (Cell Counting Kit-8), drug screen; format: cell-based; conditions: read-out: IC50 GIST882
GIST-T1/10R = assay: Cell proliferation assay (Cell Counting Kit-8); format: cell-based, human; conditions: read-out: IC50 T1-10R
[3] = tested on: imatinib sensitive cell lines; assay: Cell proliferation assay; format: cell-based
MCF7 [4] = assay: Cell proliferation assay, control cell line; conditions: Homo sapiens, MCF7, 72 h, read-out: IC50 MCF7
MRC5 = assay: Cell proliferation assay, control cell line; conditions: Homo sapiens, MRC5, 72 h, read-out: IC50 MRC5
GIST-T1/670 [5] = assay: Caspase 3/7 apoptosis assay; format: cell-based, human; conditions: GIST-T1/670, 48 h
Source text: (§1) Inhibitor concentrations used were as mentioned in figure legends.
(§2) Fig 4 Combined Inhibition of KIT, PI3K and MAPK signaling pathways induces apoptosis in GIST cells. […] The data is represented as percent increase over untreated cells; each column represents mean of triplicates. […] (***p<0.0001); (**p<0.001); (*p<0.05).

p-MAPK = assay: Immunoblot analysis of p-MAPK (p-ERK); format: cell-based; conditions: 24 h
GIST-T1 [6] = assay: Caspase 3/7 apoptosis assay; format: cell-based, human; conditions: GIST-T1, 48 h, single agent
Source text: as §1, §2

metastatic GIST = conditions: cited from earlier work
[7] = tested on: imatinib sensitive and resistant cell lines; assay: Caspase 3/7 apoptosis assay of screen hits; conditions: 24 h and 48 h; irinotecan 0.5 μM, sorafenib 500 nM, compound C 5 μM, triptolide 25 nM
Description: (§3) Around 10,000 cells/well were plated in complete media in 96-well white flat-bottom plates and therapeutic compounds were added 24 hours later. Apoptosis was evaluated by measuring caspase-3/7 activity using Caspase-Glo 3/7 Assay System (Promega, WI, USA) after 24 and 48 h of treatment with inhibitors. […] Inhibitor concentrations used were as mentioned in figure legends.
(§4) The data is represented as % of control; each bar represents the mean of triplicates. […] Cells were treated with inhibitors at indicated concentrations for 24 h.

MCF7 [8] = assay: Caspase 3/7 apoptosis assay of screen hits; format: cell-based; conditions: triptolide 25 nM
Description: as §3, §4

[9] = cell viability after 72 hours of treatment
[10] = Homo sapiens, GISTT1, cell viability after 72 hours of treatment
[11] = Homo sapiens, GIST882, cell viability after 72 hours of treatment

Row | Compound | IC50 (GIST-T1 [1]; [10]) [µM] | IC50 (GIST-T1/670 [2]; [10]) [µM] | IC50 (GIST882; [11]) [µM] | IC50 (GIST-T1/10R; [10]) [µM] | other results
1 | Nc1ncnc2c1c(I)cn2[C@@H]1O[C@H](CO)[C@@H](O)[C@H]1O [5-iodotubercidin] |  |  |  |  | IC50 (GIST-T1 [1]; [9]): ≥ 5 µM; IC50 (GIST-T1/670 [2]; [9]): ≥ 5 µM; IC50 (GIST882; [9]): ≥ 5 µM; IC50 (GIST-T1/10R; [9]): ≥ 5 µM
2 | COc1c(C[C@@H](C)OC(=O)Oc2ccc(O)cc2)c2c3c(C[C@@H](C)OC(=O)c4ccccc4)c(OC)c(=O)c4c(O)cc(OC)c(c5c(OC)cc(O)c(c1=O)c52)c43 [Calphostin C] |  |  |  |  | IC50 (GIST-T1 [1]; Homo sapiens, GISTT1, 72 h): 0.1 µM; IC50 (GIST-T1/670 [2]; Homo sapiens, GISTT1, 72 h): > 1 µM; concentration that inhibited the proliferation of imatinib sensitive cell lines ([3]; 72 h): < 0.5 µM; IC50 (GIST882; Homo sapiens, GIST882, 72 h): 0.1 µM; IC50 (GIST-T1/10R; Homo sapiens, GISTT1, 72 h): > 1 µM
3 | c1cc(-c2cnn3cc(-c4ccc(OCCN5CCCCC5)cc4)cnc23)ccn1 [Compound C] |  |  |  |  | IC50 (GIST-T1 [1]; [9]): < 0.1 µM; IC50 (GIST-T1/670 [2]; [9]): 5 µM; concentration that inhibited the proliferation of imatinib sensitive cell lines ([3]; 72 h): < 0.5 µM; IC50 (GIST882; [9]): < 0.1 µM; IC50 (GIST-T1/10R; [9]): 5 µM
4 | Cc1nc(Nc2ncc(C(=O)Nc3c(C)cccc3Cl)s2)cc(N2CCN(CCO)CC2)n1 [Dasatinib] | 0.025 | > 10 | < 0.1 | > 10 | 
5 | C[C@H]1O[C@@H](O[C@H]2[C@@H](O)C[C@H](O[C@H]3[C@@H](O)C[C@H](O[C@H]4CC[C@@]5(C)[C@H](CC[C@@H]6[C@@H]5CC[C@]5(C)[C@@H](C7=CC(=O)OC7)CC[C@]65O)C4)O[C@@H]3C)O[C@@H]2C)C[C@H](O)[C@@H]1O [Digitoxin] | < 0.1 | 0.5 | < 0.5 | 0.5 | concentration that inhibited the proliferation of imatinib sensitive cell lines [3]: < 0.5 µM
6 | C#Cc1cccc(Nc2ncnc3cc(OCCOC)c(OCCOC)cc23)c1 [Erlotinib] | > 10 | > 10 | > 10 | > 10 | 
7 | Cc1cc([N+](=O)[O-])ccc1NS(=O)(=O)c1cc(Cl)ccc1Cl [FH535] |  |  |  |  | IC50 (GIST-T1 [1]; [9]): > 30 µM; IC50 (GIST-T1/670 [2]; [9]): > 15 µM; IC50 (GIST882; [9]): > 30 µM; IC50 (GIST-T1/10R; [9]): > 15 µM
8 | O=S(=O)(c1cccc2cnccc12)N1CCCNCC1 [Fasudil] | ~70 | ~70 | ~70 | ~70 | 
9 | O=c1c(-c2ccc(O)cc2)coc2cc(O)cc(O)c12 [Genistein] | > 50 | > 50 | > 50 | > 50 | 
10 | O=S(=O)(NCCNC/C=C/c1ccc(Br)cc1)c1cccc2cnccc12 [H-89] |  |  |  |  | IC50 (GIST-T1 [1]; [9]): > 25 µM; IC50 (GIST882; [9]): > 25 µM
11 | O=C1Nc2ccccc2/C1=C1/Nc2ccccc2/C1=N\O [Indirubin-3’-Monoxime] |  |  |  |  | IC50 (GIST-T1 [1]; [9]): > 10 µM; IC50 (GIST-T1/670 [2]; [9]): > 10 µM; IC50 (GIST882; [9]): > 10 µM; IC50 (GIST-T1/10R; [9]): > 10 µM
12 | CCc1c2c(nc3ccc(OC(=O)N4CCC(N5CCCCC5)CC4)cc13)-c1cc3c(c(=O)n1C2)COC(=O)[C@]3(O)CC [Irinotecan] | 0.5 | 5 | 0.5 | 5 | IC50 (MCF7 [4]): 5 µM; IC50 (MRC5): 5 µM; concentration that inhibited the proliferation of imatinib sensitive cell lines ([3]; 72 h): < 0.5 µM
13 | CC(C)(C)c1nc2c3cc[nH]c(=O)c3c3cc(F)ccc3c2[nH]1 [JAK Inhibitor 1] |  |  |  |  | IC50 (GIST-T1 [1]; [9]): > 10 µM; IC50 (GIST-T1/670 [2]; [9]): > 15 µM; IC50 (GIST882; [9]): > 10 µM; IC50 (GIST-T1/10R; [9]): > 15 µM
14 | O=C1C=CC(=O)c2c(O)cccc21 [Juglone] | 5 | 5 | 5 | 5 | 
15 | O=C(O)c1cc(N(Cc2ccccc2O)Cc2cc(O)ccc2O)ccc1O [Lavendustin A] | > 100 | > 15 | > 100 | > 15 | 
16 | C[C@]12O[C@H](C[C@]1(O)CO)n1c3ccccc3c3c4c(c5c6ccccc6n2c5c31)CNC4=O [Lestaurtinib] | 0.1 | 5 | > 10 | 5 | IC50 (MCF7 [4]): > 10 µM; IC50 (MRC5): > 10 µM; concentration that inhibited the proliferation of imatinib sensitive cell lines ([3]; 72 h): < 0.5 µM

Row | Compound | IC50 (GIST-T1 [1]; [10]) [µM] | IC50 (GIST-T1/670 [2]; [10]) [µM] | IC50 (GIST882; [11]) [µM] | IC50 (GIST-T1/10R; [10]) [µM] | other results
17 | Cc1ccc(NC(=O)c2ccc(CN3CCN(C)CC3)cc2)cc1Nc1nc(-c2cccnc2)cs1 [Masatinib] | 0.025 | 5 | 0.05 | 5 | 
18 | Cc1cn(-c2cc(NC(=O)c3ccc(C)c(Nc4nccc(-c5cccnc5)n4)c3)cc(C(F)(F)F)c2)cn1 [Nilotinib] | 0.025 | > 10 | 0.025 | > 10 | 
19 | O=C(NOC[C@H](O)CO)c1ccc(F)c(F)c1Nc1ccc(I)cc1F [PD325901] |  |  |  |  | increase in apoptosis (caspase 3/7 activity) (GIST-T1/670 [5]; over untreated cells): about two; IC50 (GIST-T1 [1]; Homo sapiens, GISTT1, 72 h): 0.5 µM; IC50 (GIST-T1/670 [2]; Homo sapiens, GISTT1, 72 h): 1 µM; inhibition of p-MAPK (p-MAPK; 100 nM, any of the cell lines tested, western blot): not sufficient to inhibit; inhibition at 0.5 µM (p-MAPK; read-out: inhibition of p-MAPK): ~80%; concentration that inhibited the proliferation of imatinib sensitive cell lines ([3]; 72 h): < 0.5 µM; IC50 (GIST882; Homo sapiens, GIST882, 72 h): 0.5 µM; IC50 (GIST-T1/10R; Homo sapiens, GISTT1, 72 h): 1 µM
20 | Cc1ccc(Nc2nccc(N(C)c3ccc4c(C)n(C)nc4c3)n2)cc1S(N)(=O)=O [Pazopanib] | 0.025 | > 5 | 0.5 | > 1 | IC50 (MCF7 [4]): > 10 µM; IC50 (MRC5): > 10 µM
21 | CNC(=O)c1cc(Oc2ccc(NC(=O)Nc3ccc(Cl)c(C(F)(F)F)c3)c(F)c2)ccn1 [Regorafenib] | < 0.1 | 1 | < 0.1 | 1 | induction of apoptosis (caspase 3/7 activity) (GIST-T1 [6]): did not induce apoptosis; induction of apoptosis (caspase 3/7 activity) (GIST-T1/670 [5]; single agent): able to induce apoptosis effectively; IC50 (MCF7 [4]): > 10 µM; IC50 (MRC5): > 10 µM; time until resistance occurs (metastatic GIST; second-line / third-line therapy): 6–12 months
22 | CCn1c(=O)c(-c2cc(NC(=O)Nc3ccccc3)c(F)cc2Br)cc2cnc(NC)cc21 [Ripretinib] |  |  |  |  | mean progression-free survival (metastatic GIST; 4th line therapy): 6.3 months
23 | Nc1ncnc2c1nc(Br)n2C1OC2COP(O)(=S)OC2C1O (stereo not shown) [Rps-Br-cAMPS] |  |  |  |  | IC50 (GIST-T1 [1]; [9]): > 100 µM; IC50 (GIST882; [9]): > 100 µM
24 | Oc1c2ccccc2c2c3c(cccc13)N=N2 [SP600125] | 1 | 1 | 1 | 1 | 
25 | O=C1CCc2c(ccc3ccccc23)O1 [Splitomicin] | > 10 | > 10 | 15 | > 10 | IC50 (MCF7 [4]): > 10 µM; IC50 (MRC5): > 10 µM
26 | CO[C@H]1C[C@@H]2CC[C@@H](C)[C@@](O)(O2)C(=O)C(=O)N2CCCC[C@H]2C(=O)O[C@H]([C@H](C)C[C@@H]2CC[C@@H](OC(=O)C(C)(CO)CO)[C@H](OC)C2)CC(=O)[C@H](C)/C=C(\C)[C@@H](O)[C@@H](OC)C(=O)[C@H](C)C[C@H](C)/C=C/C=C/C=C/1C [Temsirolimus] | > 100 | > 100 | > 100 | > 100 | 
27 | O=C1CCC(N2C(=O)c3ccccc3C2=O)C(=O)N1 (stereo not shown) [Thalidomide] | > 100 | > 100 | > 100 | > 100 | 
28 | Cc1cc(Nc2cc(N3CCN(C)CC3)nc(Sc3ccc(NC(=O)C4CC4)cc3)n2)[nH]n1 [Tozasertib] | 5 | > 10 | 5 | > 10 | IC50 (MCF7 [4]): 5 µM; IC50 (MRC5): 5 µM
29 | CC(C)[C@]12O[C@H]1[C@@H]1O[C@]13[C@]1(O[C@H]1C[C@H]1C4=C(CC[C@@]13C)C(=O)OC4)[C@@H]2O [Triptolide] | < 0.01 | < 0.025 | < 0.01 | < 0.025 | IC50 (MCF7 [4]): > 10 µM; cytotoxic effects (caspase 3/7 activity) [7]: ≥ 2 fold; IC50 (MRC5): 0.01 µM; concentration that inhibited the proliferation of imatinib sensitive cell lines ([3]; 72 h): < 0.5 µM; cytotoxicity (caspase 3/7 activity) in MCF7 (MCF7 [8]): showed cytotoxicity
30 | Clc1ccc(Nc2nnc(Cc3ccncc3)c3ccccc23)cc1 [Vatalanib] | 0.1 | > 10 | 1 | > 10 | IC50 (MCF7 [4]): > 10 µM; IC50 (MRC5): > 10 µM
31 | Sarcatanib |  |  |  |  | IC50 (GIST-T1 [1]; [9]): 5 µM; IC50 (GIST-T1/670 [2]; [9]): > 10 µM; IC50 (GIST882; [9]): 1 µM; IC50 (GIST-T1/10R; [9]): > 10 µM
